Assay: solvent given as SMILES

In the case of `Cc1ccc(-c2nc(-c3ccc(O)cc3)[nH]c2-c2ccc(C)cc2)cc1`, the absorption maximum (in CO) is reported as 295 nm.
`Cn1c2ccccc2[c+](-c2ccccc2)c2cc([N+](=O)[O-])ccc21` gave an absorption maximum (in CC#N) of 428.3 nm, an absorption maximum (in CCO) of 426.3 nm and an absorption maximum (in CO) of 432.1 nm. It also gave an absorption maximum (in CS(C)=O) of 434.3 nm.
`CCn1c(-c2ccc(-c3ccc(-c4ccc(-c5n(CC)c6ccccc6[n+]5CC)cc4)c(C)c3)cc2)[n+](CC)c2ccccc21` showed an absorption maximum (in O) of 290 nm.
With `CCCc1ccc2c(c1)cc1n2B2c3c4c-1cccc4cc1cccc(c31)-c1cc3cc(CCC)ccc3n12` the absorption maximum (in C1CCOC1) was 537 nm.
Work on `O=S(=O)(c1ccccc1)c1ccc(-c2ccc3c(c2)c2cc(-c4ccc(S(=O)(=O)c5ccccc5)cc4)ccc2n3-c2ccccc2)cc1` yielded an absorption maximum (in CCCCCC) of 343 nm, an absorption maximum (in CN(C)C=O) of 345 nm and an absorption maximum (in CO) of 343 nm. The absorption maximum (in Cc1ccccc1) was 340 nm and the absorption maximum (in ClCCl) was 343 nm.
In the case of `COc1cc2c3sc4ccccc4c3c3cncnc3c2c(OC)c1OC`, the absorption maximum (in ClCCl) is reported as 376 nm.
With `Cc1ccc2oc(-c3cc4cc(C)ccc4oc3=O)cc2c1` the absorption maximum (in CC#N) was 372 nm, the absorption maximum (in CCOC(C)=O) was 374 nm and the absorption maximum (in CS(C)=O) was 377 nm. The absorption maximum (in Cc1ccccc1) was 378 nm and the absorption maximum (in O) was 351 nm.
With `N#Cc1c(-c2ccccc2)cc(-c2ccccc2)[nH]c1=S` the absorption maximum (in C1COCCO1) was 446 nm, the absorption maximum (in CC#N) was 434 nm and the absorption maximum (in CCCCO) was 441 nm. For the same compound, the absorption maximum (in CCCO) was 431 nm, the absorption maximum (in CCO) was 407 nm and the absorption maximum (in CCOC(C)=O) was 430 nm. For the same compound, the absorption maximum (in CCOCC) was 451 nm and the absorption maximum (in CN(C)C=O) was 439 nm.
For `OB(O)c1ccc(-c2ccc(N(c3ccccc3)c3ccccc3)cc2)cc1`, the absorption maximum (in C1CCCCC1) was 332.8 nm, the absorption maximum (in C1CCOC1) was 331 nm and the absorption maximum (in CCO) was 329.6 nm. It also gave an absorption maximum (in CCOCC) of 330 nm and an absorption maximum (in CO) of 326 nm.
`CC1(C)Cc2c(c3ccccc3c3nc4c(nc23)c2c(c3ccccc34)OC(C)(C)C2)O1` showed an absorption maximum (in C1CCCCC1) of 451.06 nm, an absorption maximum (in C1COCCO1) of 453.93 nm and an absorption maximum (in CC#N) of 454.96 nm. The absorption maximum (in CC(C)O) was 452.08 nm, the absorption maximum (in CCCCCC) was 450.05 nm and the absorption maximum (in ClC(Cl)Cl) was 457.04 nm. It also gave an absorption maximum (in c1ccccc1) of 454.96 nm.
For `N#C/C(=C\c1ccc([N+](=O)[O-])cc1)c1nc(-c2ccccc2)cs1`, the absorption maximum (in CC#N) was 382 nm.
Work on `CCCCC(CC)CN1C(=O)c2cccc3c(C#Cc4ccc(N(c5ccccc5)c5ccccc5)cc4)ccc(c23)C1=O` (stereo unspecified) yielded an absorption maximum (in C1CCCCC1) of 422 nm, an absorption maximum (in C1CCOC1) of 434 nm and an absorption maximum (in CC#N) of 433 nm. For the same compound, the absorption maximum (in Cc1ccccc1) was 438 nm and the absorption maximum (in ClC(Cl)Cl) was 450 nm.
With `O=c1oc2cccc3c4cccc5ccc6c7ccccc7c1c(c23)c6c54` the absorption maximum (in C1CCOC1) was 409 nm.
`CCC1(CC)c2ccccc2-c2c1c1c(c3c2C(CC)(CC)c2cc(/C=C/c4cccs4)ccc2-3)C(CC)(CC)c2cc(/C=C/c3cccs3)ccc2-1` showed an absorption maximum (in C1CCOC1) of 382 nm.
`COc1ccc(-c2cc3c(s2)c(C(C)=O)cc(=O)n3Cc2ccccc2)cc1` gave an absorption maximum (in CC#N) of 420 nm and an absorption maximum (in ClCCl) of 426 nm.
Work on `N#Cc1c(N2CCCC2)cc(-c2ccccc2)c2c1-c1ccccc1C2=O` yielded an absorption maximum (in C1CCOC1) of 392 nm.
Compound `COc1ccc(-c2[nH]c(=O)n3c2-c2ccccc2C3=O)c(OC)c1` has an absorption maximum (in CC#N) of 401 nm, an absorption maximum (in CO) of 401 nm and an absorption maximum (in ClCCl) of 406 nm.
`F[B-]1(F)n2c(Oc3ccccc3)c(Cl)c(Br)c2C(Oc2ccccc2)=C2C(Br)=C(Cl)C(Oc3ccccc3)=[N+]21` showed an absorption maximum (in ClCCl) of 533 nm.
Compound `C[Si](C)(C)c1sc([Si](C)(C)C)c2c1sc1c2sc2sc3sc4c(sc5c([Si](C)(C)C)sc([Si](C)(C)C)c54)c3c21` has an absorption maximum (in ClC(Cl)Cl) of 332 nm.
`FC(F)(F)C(F)(F)C(F)(F)c1nc2c(-c3ccsc3)cc3c4cc(-c5ccsc5)c5nc(C(F)(F)C(F)(F)C(F)(F)F)nc6c(-c7ccsc7)cc(c7cc(-c8ccsc8)c(n1)c2c37)c4c56` gave an absorption maximum (in C1CCOC1) of 538 nm.
For `c1ccc(N(c2ccccc2)c2ccc(-c3ccc4c(c3)C3(c5cc(-c6ccc(N(c7ccccc7)c7ccccc7)cc6)ccc5-4)c4ccccc4N(c4ccccc4)c4ccccc43)cc2)cc1`, the absorption maximum (in ClCCl) was 372 nm.
